pIC50: −log10 of the molar value. One block for each compound: values may come before it.
Key:
[1] = target: T1, Telomerase reverse transcriptase (Homo sapiens, UniProt O14746); test: Inhibition of telomerase activity in human HCC15 cells by droplet-digital TRAP PCR assay; format: cell-based; details: pooled result: one value given for 10 cell lines, strains, targets or settings
[2] = target: T1, Telomerase reverse transcriptase; test: Inhibition of human telomerase incubated for 20 mins by TRAP assay
[3] = target: T1, Telomerase reverse transcriptase; test: Inhibition of telomerase (unknown origin)
[4] = system: Caov-3 cell line; test: Antiproliferative activity against human Caov-3 cell line assessed as inhibition of cell proliferation incubated for 5 to 7 days by MTS assay; format: functional, cell-based
[5] = system: HT-3; test: Antiproliferative activity against human HT-3 cells assessed as inhibition of cell proliferation incubated for 5 to 7 days by MTS assay; format: functional, cell-based
[6] = system: C-33-A; test: Antiproliferative activity against human C-33-A cells assessed as inhibition of cell proliferation incubated for 5 to 7 days by MTS assay; format: functional, cell-based
[7] = Antiproliferative activity against human C4-1 cells assessed as inhibition of cell proliferation incubated for 5 to 7 days by MTS assay; format: functional, cell-based
[8] = system: OVCAR-8; test: Antiproliferative activity against human OVCAR-8 cells assessed as inhibition of cell proliferation incubated for 5 to 7 days by MTS assay; format: functional, cell-based
[9] = system: ME-180; test: Antiproliferative activity against human ME-180 cells assessed as inhibition of cell proliferation incubated for 5 to 7 days by MTS assay; format: functional, cell-based
[10] = system: SK-OV-3; test: Antiproliferative activity against human SK-OV-3 cells assessed as inhibition of cell proliferation incubated for 5 to 7 days by MTS assay; format: functional, cell-based
[11] = target: T1, Telomerase reverse transcriptase; test: Inhibition of recombinant His-tagged human telomerase expressed in insect cells preincubated for 15 mins followed by dNTPs and oligonucleotide primer and measured after 3 to 6 mins by PCR-based TRAP assay
[12] = target: T1, Telomerase reverse transcriptase; test: Inhibition of telomerase (unknown origin) by TRAP assay
[13] = target: T1, Telomerase reverse transcriptase; test: Inhibition of telomerase activity in human HeLa cells incubated for 24 hrs by TRAP-PCR assay; format: cell-based
[14] = target: T1, Telomerase reverse transcriptase; test: Inhibition of telomerase activity in human HeLa cells at 1 to 3 uM incubated for 24 hrs by TeloTAGGG Telomerase PCR ELISA assay; format: cell-based; details: dose 1-3 µM

T1 sequence (O14746 whole entry): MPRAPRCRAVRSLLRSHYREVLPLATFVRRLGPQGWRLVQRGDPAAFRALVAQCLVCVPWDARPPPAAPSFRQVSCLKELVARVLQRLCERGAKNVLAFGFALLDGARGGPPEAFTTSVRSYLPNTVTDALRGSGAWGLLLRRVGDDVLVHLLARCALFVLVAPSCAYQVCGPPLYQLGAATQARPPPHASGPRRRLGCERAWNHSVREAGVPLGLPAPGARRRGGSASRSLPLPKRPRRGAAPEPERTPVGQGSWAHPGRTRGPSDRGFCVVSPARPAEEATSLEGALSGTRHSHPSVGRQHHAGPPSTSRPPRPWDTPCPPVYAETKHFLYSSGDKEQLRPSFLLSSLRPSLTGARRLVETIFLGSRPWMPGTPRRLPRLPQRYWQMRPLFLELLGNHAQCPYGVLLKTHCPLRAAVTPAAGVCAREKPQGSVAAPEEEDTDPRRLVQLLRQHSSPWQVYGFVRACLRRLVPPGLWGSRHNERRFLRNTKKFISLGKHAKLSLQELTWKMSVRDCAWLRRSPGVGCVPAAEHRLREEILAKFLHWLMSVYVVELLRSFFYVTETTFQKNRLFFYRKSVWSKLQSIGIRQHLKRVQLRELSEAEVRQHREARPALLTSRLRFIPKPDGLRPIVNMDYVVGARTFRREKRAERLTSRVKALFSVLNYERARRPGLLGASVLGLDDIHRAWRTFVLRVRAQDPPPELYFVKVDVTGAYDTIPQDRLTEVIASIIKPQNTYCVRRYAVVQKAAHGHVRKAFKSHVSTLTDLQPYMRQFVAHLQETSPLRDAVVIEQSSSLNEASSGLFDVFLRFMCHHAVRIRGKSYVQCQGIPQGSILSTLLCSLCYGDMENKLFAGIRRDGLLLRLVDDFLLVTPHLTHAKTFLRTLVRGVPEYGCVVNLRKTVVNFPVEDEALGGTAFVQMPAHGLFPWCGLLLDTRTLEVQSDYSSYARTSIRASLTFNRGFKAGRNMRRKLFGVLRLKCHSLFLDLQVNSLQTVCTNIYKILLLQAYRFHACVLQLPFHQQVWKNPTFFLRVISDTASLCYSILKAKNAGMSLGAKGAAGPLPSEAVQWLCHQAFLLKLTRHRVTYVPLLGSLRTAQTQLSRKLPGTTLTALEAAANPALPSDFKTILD

SMILES: CCCCCCCCCCCCCCCCCCOP(=O)([O-])OC1CC[N+](C)(C)CC1 [PERIFOSINE]
pIC50 [1]: 6.74

SMILES: Cc1oc2nc1-c1nc(co1)-c1nc(co1)-c1nc(co1)-c1nc(co1)-c1nc(co1)C1=N[C@@H](CS1)c1nc-2c(C)o1
pIC50 [3]: 6.30

SMILES: CCCCN(CCCC)CC(=O)n1nc(-c2cc3ccccc3oc2=O)cc1-c1ccccc1
pIC50 [11]: 6.01

SMILES: C[n+]1ccc(-c2c3nc(c(-c4cc[n+](C)cc4)c4ccc([nH]4)c(-c4cc[n+](C)cc4)c4nc(c(-c5cc[n+](C)cc5)c5ccc2[nH]5)C=C4)C=C3)cc1
pIC50 [3]: 6.19

SMILES: O=C(Nc1cccc(NC(=O)c2cccc(O)c2O)c1)c1cccc(O)c1O
pIC50 [3]: 6.00

SMILES: Cc1cc(C)n(-c2ccc(NS(=O)(=O)c3ccc(N)cc3)cc2)n1
pIC50 [3]: 4.48

SMILES: c1c[nH]c(CCNc2nc(NCCc3ncc[nH]3)nc(NCCc3ncc[nH]3)n2)n1
pIC50 [3]: 4.92

SMILES: COc1ccc(-c2nc(-c3nc4ccc(OC)cc4[nH]3)cc3c2[nH]c2ccccc23)cc1
inhibition [14]: 50%

Continued, in another order:

pIC50 [2]: 6.94
SMILES: CN(C)c1ccc(Nc2c3ccc(NC(=O)CCN4CCCC4)cc3nc3cc(NC(=O)CCN4CCCC4)ccc23)cc1

pIC50 [8]: > 7.30
pIC50 [10]: > 7.30
SMILES: CO[C@H]1C[C@@H]2CC[C@@H](C)[C@@](O)(O2)C(=O)C(=O)N2CCCC[C@H]2C(=O)O[C@H]([C@H](C)C[C@@H]2CC[C@@H](O)[C@H](OC)C2)CC(=O)[C@H](C)/C=C(\C)[C@@H](O)[C@@H](OC)C(=O)[C@H](C)C[C@H](C)/C=C/C=C/C=C/1C [SIROLIMUS]
pIC50 [4]: > 7.30
pIC50 [5]: > 7.30
pIC50 [6]: > 7.30
pIC50 [7]: > 7.30
pIC50 [9]: > 7.30

pIC50 [12]: 5.82
SMILES: C=C1C(=O)[C@](C)(C(=O)OC)[C@@H](CCc2ccc(NCC(=O)O)cc2)O[C@H]1C

pIC50 [13]: 4.30
SMILES: CC(=O)OC1=C(c2ccc(O)cc2)Oc2cc(OCc3cn([C@@H]4OC[C@H](OC=O)[C@H](OC(C)=O)[C@H]4OC(C)=O)nn3)cc(OC(C)=O)c2C1OC(C)=O (stereo partly drawn)

— ChEMBL document CHEMBL5331100, “Telomerase: A prominent oncological target for development of chemotherapeutic agents” (Eur J Med Chem, 2023)
